According to PubChem BioAssay (NCI):
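The compound was tested at five concentrations on cells cultured in 96-well plates, with a 48-hour exposure period. TGI is the concentration that stops growth completely.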

What was measured:
Assay in all cases: NCI anticancer screen, dose series, 48 h
[1] = tested on: DU-145 prostate
[2] = tested on: MDA-MB-435
[3] = tested on: MDA-N
[4] = tested on: SK-MEL-28 melanoma
[5] = tested on: NCI-H23 lung
[6] = tested on: OVCAR-8 ovarian
[7] = tested on: HT29 colon
[8] = tested on: M14 melanoma
[9] = tested on: U251 CNS
[10] = tested on: HCT-15 colon
[11] = tested on: NCI-H226 lung
[12] = tested on: BT-549 breast
[13] = tested on: RXF 393 renal
[14] = tested on: SK-OV-3 ovarian
[15] = tested on: SR leukemia
[16] = tested on: COLO 205 colon
[17] = tested on: 786-0 renal
[18] = tested on: OVCAR-4 ovarian
[19] = tested on: UACC-257 melanoma
[20] = tested on: NCI-H522 lung
[21] = tested on: TK-10 renal
[22] = tested on: IGROV1 ovarian
[23] = tested on: LOX IMVI melanoma
[24] = tested on: K-562 leukemia
[25] = tested on: MOLT-4 leukemia
[26] = tested on: UO-31 renal
[27] = tested on: HOP-92 NSCLC
[28] = tested on: SK-MEL-2 melanoma
[29] = tested on: HL-60(TB) leukemia
[30] = tested on: OVCAR-5 ovarian
[31] = tested on: NCI-H460 lung
[32] = tested on: RPMI-8226 leukemia
[33] = tested on: A549 NSCLC
[34] = tested on: CCRF-CEM leukemia
[35] = tested on: HOP-62 NSCLC
[36] = tested on: UACC-62 melanoma
[37] = tested on: SW-620 colon
[38] = tested on: SF-539 CNS
[39] = tested on: HS 578T breast
[40] = tested on: CAKI-1 renal
[41] = tested on: SF-268 CNS
[42] = tested on: SK-MEL-5 melanoma
[43] = tested on: T-47D breast
[44] = tested on: MDA-MB-231 breast
[45] = tested on: ACHN renal
[46] = tested on: OVCAR-3 ovarian
[47] = tested on: KM12 colon
[48] = tested on: MALME-3M melanoma
[49] = tested on: A498 renal
[50] = tested on: HCT-116 colon
[51] = tested on: NCI/ADR-RES ovarian
[52] = tested on: EKVX NSCLC
[53] = tested on: SF-295 CNS
[54] = tested on: SN12C renal
[55] = tested on: PC-3 prostate
[56] = tested on: HCC-2998 colon
[57] = tested on: SNB-19 CNS
[58] = tested on: MCF7 breast

Question: With O=C(CCc1ccc(O)c(O)c1)OCCc1ccccc1 as the compound, how does the TGI [1] read?
Answer: > 100 µM

Question: What about the TGI [2] of the same compound?
Answer: 40.6 µM

Question: And the TGI [3]?
Answer: 30.4 µM

Question: And the TGI [4]?
Answer: > 100 µM

Question: And the TGI [5]?
Answer: > 100 µM

Question: And the TGI [6]?
Answer: > 100 µM

Question: And the TGI [7]?
Answer: > 100 µM

Question: What about the TGI [8] of the same compound?
Answer: > 100 µM

Question: What about the TGI [9] of the same compound?
Answer: > 100 µM

Question: And the TGI [10]?
Answer: > 100 µM

Question: And the TGI [11]?
Answer: > 100 µM

Question: And the TGI [12]?
Answer: > 100 µM

Question: And the TGI [13]?
Answer: > 100 µM

Question: What about the TGI [14] of the same compound?
Answer: > 100 µM

Question: And the TGI [15]?
Answer: > 78.2 µM

Question: What about the TGI [16] of the same compound?
Answer: > 100 µM

Question: And the TGI [17]?
Answer: > 100 µM

Question: What about the TGI [18] of the same compound?
Answer: > 65.6 µM

Question: And the TGI [19]?
Answer: > 100 µM

Question: What about the TGI [20] of the same compound?
Answer: 17.8 µM

Question: And the TGI [21]?
Answer: > 100 µM

Question: And the TGI [22]?
Answer: > 100 µM

Question: What about the TGI [23] of the same compound?
Answer: 54.8 µM

Question: What about the TGI [24] of the same compound?
Answer: > 57.5 µM

Question: What about the TGI [25] of the same compound?
Answer: > 83.4 µM

Question: And the TGI [26]?
Answer: > 100 µM

Question: What about the TGI [27] of the same compound?
Answer: > 100 µM

Question: And the TGI [28]?
Answer: > 100 µM

Question: What about the TGI [29] of the same compound?
Answer: 17.3 µM

Question: What about the TGI [30] of the same compound?
Answer: > 100 µM

Question: And the TGI [31]?
Answer: > 100 µM

Question: And the TGI [32]?
Answer: > 86.6 µM

Question: What about the TGI [33] of the same compound?
Answer: > 100 µM

Question: And the TGI [34]?
Answer: 76.3 µM

Question: What about the TGI [35] of the same compound?
Answer: > 31.6 µM

Question: And the TGI [36]?
Answer: > 100 µM

Question: And the TGI [37]?
Answer: > 62.2 µM

Question: And the TGI [38]?
Answer: 54.5 µM

Question: And the TGI [39]?
Answer: > 100 µM

Question: What about the TGI [40] of the same compound?
Answer: > 100 µM

Question: What about the TGI [41] of the same compound?
Answer: > 100 µM

Question: And the TGI [42]?
Answer: > 100 µM

Question: What about the TGI [43] of the same compound?
Answer: > 100 µM

Question: What about the TGI [44] of the same compound?
Answer: > 100 µM

Question: What about the TGI [45] of the same compound?
Answer: > 100 µM

Question: What about the TGI [46] of the same compound?
Answer: > 100 µM

Question: What about the TGI [47] of the same compound?
Answer: > 100 µM

Question: What about the TGI [48] of the same compound?
Answer: > 100 µM

Question: And the TGI [49]?
Answer: > 100 µM

Question: What about the TGI [50] of the same compound?
Answer: > 100 µM

Question: And the TGI [51]?
Answer: > 100 µM

Question: What about the TGI [52] of the same compound?
Answer: > 100 µM

Question: And the TGI [53]?
Answer: > 100 µM

Question: And the TGI [54]?
Answer: > 100 µM

Question: And the TGI [55]?
Answer: > 100 µM

Question: What about the TGI [56] of the same compound?
Answer: > 100 µM

Question: And the TGI [57]?
Answer: > 100 µM

Question: What about the TGI [58] of the same compound?
Answer: > 100 µM

Question: CC(=O)c1cc(I)c(O)c2ncccc12 was tested. Which TGI [1] did it give?
Answer: 8.45 µM

Question: And the TGI [2]?
Answer: > 10 µM

Question: And the TGI [3]?
Answer: > 10 µM

Question: And the TGI [4]?
Answer: > 10 µM

Question: What about the TGI [5] of the same compound?
Answer: 8.45 µM

Question: And the TGI [6]?
Answer: 7.38 µM

Question: What about the TGI [7] of the same compound?
Answer: > 10 µM

Question: And the TGI [8]?
Answer: 4.09 µM

Question: And the TGI [9]?
Answer: > 10 µM

Question: What about the TGI [10] of the same compound?
Answer: > 10 µM

Question: What about the TGI [11] of the same compound?
Answer: 5.7 µM

Question: And the TGI [12]?
Answer: > 10 µM

Question: What about the TGI [13] of the same compound?
Answer: 8.76 µM

Question: And the TGI [14]?
Answer: > 10 µM

Question: What about the TGI [15] of the same compound?
Answer: 8.98 µM

Question: And the TGI [16]?
Answer: 7.81 µM

Question: What about the TGI [17] of the same compound?
Answer: 9.07 µM

Question: And the TGI [18]?
Answer: 6.82 µM

Question: What about the TGI [19] of the same compound?
Answer: 6.06 µM

Question: What about the TGI [20] of the same compound?
Answer: > 10 µM

Question: What about the TGI [21] of the same compound?
Answer: > 10 µM

Question: And the TGI [22]?
Answer: 7.44 µM

Question: And the TGI [23]?
Answer: > 10 µM

Question: And the TGI [24]?
Answer: > 10 µM

Question: What about the TGI [25] of the same compound?
Answer: 5.77 µM

Question: What about the TGI [27] of the same compound?
Answer: 6.19 µM

Question: What about the TGI [28] of the same compound?
Answer: > 10 µM

Question: What about the TGI [29] of the same compound?
Answer: 4.28 µM

Question: And the TGI [30]?
Answer: > 10 µM

Question: What about the TGI [31] of the same compound?
Answer: > 10 µM

Question: What about the TGI [32] of the same compound?
Answer: > 10 µM

Question: What about the TGI [33] of the same compound?
Answer: > 10 µM

Question: And the TGI [34]?
Answer: 4.45 µM

Question: What about the TGI [35] of the same compound?
Answer: > 10 µM

Question: And the TGI [36]?
Answer: 7.9 µM

Question: And the TGI [37]?
Answer: > 10 µM

Question: And the TGI [38]?
Answer: 6.57 µM

Question: And the TGI [39]?
Answer: > 10 µM

Question: What about the TGI [40] of the same compound?
Answer: > 10 µM

Question: And the TGI [41]?
Answer: 9.86 µM

Question: What about the TGI [42] of the same compound?
Answer: 5.08 µM

Question: And the TGI [43]?
Answer: > 10 µM

Question: What about the TGI [44] of the same compound?
Answer: 8.09 µM

Question: And the TGI [45]?
Answer: 5.6 µM

Question: And the TGI [46]?
Answer: 6.57 µM

Question: What about the TGI [47] of the same compound?
Answer: > 10 µM

Question: What about the TGI [48] of the same compound?
Answer: 6.97 µM

Question: What about the TGI [49] of the same compound?
Answer: 6.53 µM

Question: What about the TGI [50] of the same compound?
Answer: 5.93 µM

Question: And the TGI [51]?
Answer: 8.24 µM

Question: What about the TGI [52] of the same compound?
Answer: > 10 µM

Question: What about the TGI [53] of the same compound?
Answer: 9.61 µM

Question: And the TGI [54]?
Answer: > 10 µM

Question: And the TGI [55]?
Answer: > 10 µM

Question: What about the TGI [56] of the same compound?
Answer: > 10 µM

Question: And the TGI [57]?
Answer: > 10 µM

Question: What about the TGI [58] of the same compound?
Answer: > 10 µM
